Assay results published in patent publication US20250214979A1, “COMPOUNDS FOR TREATING PSYCHOSTIMULANT MISUSE” (University of Florida Research Foundation, Incorporated, priority 2022, published 2025).
Read-outs that look alike come from different tables or passages of the source.

Columns and labels:
sigma 1 (h) = target: T1, sigma 1 (h) (Homo sapiens, UniProt Q99720); experiment: sigma 1 (h) agonist radioligand binding assay ([3H](+)pentazocine); conditions: Sigma 1 Receptor, 1.00E−06 M
T1 construct: endogenous; endogenous in cells; host or cells: Jurkat cells
Experimental: (§1) 12 compounds in binding assays (either sigma 1 or sigma 2 receptors) at 1.0×10^−6 M. Compound binding was calculated as a % inhibition of the binding of a ligand specific for each target.
(§2) The results are expressed as a percent of control specific binding: [(measured specific binding)/(control specific binding)]*100 and as a percent inhibition of control specific binding: 100−{[(measured specific binding)/(control specific binding)]*100}, obtained in the presence of the test compounds.
(§3) The IC50 values (concentration causing a half-maximal inhibition of control specific binding) and Hill coefficients (nH) were determined by non-linear regression analysis of the competition curves generated with mean replicate values using Hill equation curve fitting: Y={D+[(A−D)/(1+(C/C50)^nH)]} (where Y=specific binding, A=left asymptote of the curve, D=right asymptote of the curve, C=compound concentration, C50=IC50, and nH=slope factor). This analysis was performed using software developed at Cerep (Hill software) and validated by comparison with data generated by the commercial software SigmaPlot® 4.0 for Windows® (© 1997 by SPSS Inc.). The inhibition constants (Ki) were calculated using the Cheng Prusoff equation: Ki=(IC50)/(1+L/KD) (where L=concentration of ligand in the assay, and KD=affinity of the ligand for the receptor).

sigma 2 (h) = target: T2, sigma 2 (h) (Homo sapiens, UniProt Q5BJF2); experiment: sigma 2 (h) agonist radioligand binding assay ([3H]DTG); conditions: Sigma 2 Receptor, 1.00E−06 M
T2 construct: endogenous; endogenous in cells; host or cells: Jurkat cells
Experimental: as §1, §2, §3

dopamine transporter (h) = target: T3, dopamine transporter (h) (Homo sapiens, UniProt Q01959); experiment: dopamine transporter (h) antagonist radioligand binding assay ([3H]BTCP); conditions: 1.00E−06 M
T3 construct: expressed in transfected cells; host or cells: CHO cells
Experimental: [The source words this procedure for another target and reports this target under the same test.] as §1, §2, §3

[1] = 1st, read-out: % Inhibition of Control Specific Binding, 1st
[2] = 2nd, read-out: % Inhibition of Control Specific Binding, 2nd
[3] = read-out: % Inhibition of Control Specific Binding, 3rd

T2 sequence (Q5BJF2 whole entry): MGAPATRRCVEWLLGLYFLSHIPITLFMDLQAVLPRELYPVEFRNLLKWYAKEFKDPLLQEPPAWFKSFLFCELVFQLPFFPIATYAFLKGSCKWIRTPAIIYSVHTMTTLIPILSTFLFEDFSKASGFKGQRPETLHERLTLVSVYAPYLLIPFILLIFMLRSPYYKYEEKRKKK
T3 sequence (Q01959 whole entry): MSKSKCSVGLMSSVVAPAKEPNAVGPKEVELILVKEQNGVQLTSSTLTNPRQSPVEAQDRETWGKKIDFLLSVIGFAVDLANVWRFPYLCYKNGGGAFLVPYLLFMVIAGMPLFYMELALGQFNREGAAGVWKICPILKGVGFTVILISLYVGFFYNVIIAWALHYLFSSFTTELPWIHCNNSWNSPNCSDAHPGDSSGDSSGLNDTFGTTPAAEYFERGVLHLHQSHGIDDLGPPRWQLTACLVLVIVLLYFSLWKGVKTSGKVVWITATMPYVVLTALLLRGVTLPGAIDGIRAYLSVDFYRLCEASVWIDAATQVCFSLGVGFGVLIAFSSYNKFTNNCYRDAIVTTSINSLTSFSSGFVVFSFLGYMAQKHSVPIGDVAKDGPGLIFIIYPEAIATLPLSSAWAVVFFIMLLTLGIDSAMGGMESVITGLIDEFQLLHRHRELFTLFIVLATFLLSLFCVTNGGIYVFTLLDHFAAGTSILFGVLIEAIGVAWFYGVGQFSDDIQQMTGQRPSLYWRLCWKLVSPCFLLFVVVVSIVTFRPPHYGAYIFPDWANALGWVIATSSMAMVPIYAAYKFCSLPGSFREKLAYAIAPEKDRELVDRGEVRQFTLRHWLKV
T1 sequence (Q99720 whole entry): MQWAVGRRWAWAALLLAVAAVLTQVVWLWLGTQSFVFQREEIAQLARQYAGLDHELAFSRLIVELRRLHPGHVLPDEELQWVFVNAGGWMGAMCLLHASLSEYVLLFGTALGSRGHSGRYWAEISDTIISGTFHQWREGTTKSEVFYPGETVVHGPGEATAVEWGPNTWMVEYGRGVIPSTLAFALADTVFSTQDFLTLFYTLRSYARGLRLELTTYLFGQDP

| Structure (SMILES) | inhibition at 1 µM (sigma 1 (h); [1]) | inhibition at 1 µM (sigma 1 (h); [2]) | inhibition at 1 µM (sigma 1 (h); [3]) | inhibition at 1 µM (sigma 2 (h); [1]) | inhibition at 1 µM (sigma 2 (h); [2]) | inhibition at 1 µM (sigma 2 (h); [3]) | inhibition at 1 µM (dopamine transporter (h); [1]) | inhibition at 1 µM (dopamine transporter (h); [2]) | inhibition at 1 µM (dopamine transporter (h); [3]) |
| --- | --- | --- | --- | --- | --- | --- | --- | --- | --- |
| O=C1COCc2ccccc2N1CCCCN1CCN(c2cccc(Cl)c2)CC1 [SMB108, 1-(4-(4-(3-Chlorophenyl)piperazin-1-yl)butyl)-1,5-dihydrobenzo[e][1,4]oxazepin-2(3H)-one] | 93.8% | 95.4% | 94.6% | 95% | 99.8% | 97.4% | 28.3% | 25.9% | 27.1% |
| Cn1c(=O)n(CCCCN2CCC3(CC2)OCc2ccccc23)c2ccccc21 [CM699, reference compound] | 95.6% | 94% | 94.8% | 88% | 95.9% | 92% | 18.6% | 23.2% | 20.9% |
| O=C1CSCc2ccccc2N1CCCCN1CCC2(CC1)OCc1ccccc12 [STG187] | 93.6% | 98.9% | 96.3% | 96.5% | 108% | 102% | 12.9% | 13.1% | 13% |
| O=C1CCCc2ccccc2N1CCCCN1CCC2(CC1)OCc1ccccc12 [STG136, 1-(4-(3H-spiro[isobenzofuran-1,4′-piperidin]-1′-yl)butyl)-1,3,4,5-tetrahydro-2H-benzo[b]azepin-2-one] | 98.8% | 98.4% | 98.6% | 90.3% | 100% | 95.3% | 7.9% | 11.4% | 9.7% |
| O=C1CCCc2ccccc2N1CCCCN1CCN(c2ccc(Cl)cc2)CC1 [STG188] | 98.8% | 99.2% | 99% | 82.9% | 85.9% | 84.4% | 26.5% | 23.2% | 24.8% |
| O=C1COCc2ccccc2N1CCCCN1CCC2(CC1)OCc1ccccc12 [STG135, 1-(4-(3H-spiro[isobenzofuran-1,4′-piperidin]-1′-yl)butyl)-1,5-dihydrobenzo[e][1,4]oxazepin-2(3H)-one] | 97.9% | 94.5% | 96.2% | 106% | 84.4% | 95.2% | 6% | 3.5% | 4.8% |
| O=C1COCc2ccccc2N1CCCCN1CCN(c2ccc(Cl)cc2)CC1 [STG189] | 92.8% | 93.6% | 93.2% | 82.2% | 78.2% | 80.2% | 8.6% | 5.1% | 6.8% |

The remaining lines, values ahead:

| inhibition at 1 µM (sigma 1 (h); [1]) | inhibition at 1 µM (sigma 1 (h); [2]) | inhibition at 1 µM (sigma 1 (h); [3]) | inhibition at 1 µM (sigma 2 (h); [1]) | inhibition at 1 µM (sigma 2 (h); [2]) | inhibition at 1 µM (sigma 2 (h); [3]) | inhibition at 1 µM (dopamine transporter (h); [1]) | inhibition at 1 µM (dopamine transporter (h); [2]) | inhibition at 1 µM (dopamine transporter (h); [3]) | Structure (SMILES) |
| --- | --- | --- | --- | --- | --- | --- | --- | --- | --- |
| 95.7% | 93.8% | 94.7% | 93.2% | 100% | 96.7% | -5.6% | -2.8% | -4.2% | O=C1CCCc2ccccc2N1CCCCN1CCN(c2ccccc2Cl)CC1 [STG158] |
| 101% | 101% | 101% | 96.4% | 95.5% | 95.9% | 9.2% | 14.8% | 12% | O=C1CSCc2ccccc2N1CCCCN1CCN(c2ccc(Cl)cc2)CC1 [STG190] |
| 96.7% | 97.6% | 97.1% | 104% | 98.7% | 101% | 24.6% | 24.4% | 24.5% | O=C1CCCc2ccccc2N1CCCCN1CCN(c2cccc(Cl)c2)CC1 [SMB107, 1-(4-(4-(3-Chlorophenyl)piperazin-1-yl)butyl)-1,3,4,5-tetrahydro-2H-benzo[b]azepin-2-one] |
| 53.5% | 53.2% | 53.3% | 56.6% | 43.4% | 50% | 12.6% | 4.3% | 8.5% | O=C1CSCc2ccccc2N1CCCCN1CCN(c2ccccc2Cl)CC1 [STG192] |
| 98.6% | 98.5% | 98.6% | 86.2% | 102% | 94.4% | 21.8% | 27.6% | 24.7% | O=C1CSCc2ccccc2N1CCCCN1CCN(c2cccc(Cl)c2)CC1 [STG191] |
